Data set [1] concerns the target Matrix metalloproteinase-14 (Homo sapiens, UniProt P50281). The data set can be described thus: Inhibition of recombinant human MMP-14 catalytic domain pretreated for 4 hrs followed by Mca-Lys-Pro-Leu-Gly-Leu-Dap(Dnp)-Ala-Arg-NH2 fluorogenic substrate addition measured every 15 secs for 20 mins by fluorimetric assay.
For data set [2], the target named is T1, Matrix metalloproteinase-9 (Homo sapiens, UniProt P14780). The experiment in a line: Inhibition of MMP-9 homodimerization in human U343MG cells assessed as reduction in cell invasion at 25 nM measured after 24 hrs by p-formaldehyde/crystal violet staining based matrigel basement membrane transwell assay.
Data set [3] addresses 72 kDa type IV collagenase (Homo sapiens, UniProt P08253). The data set can be described thus: Inhibition of p-aminophenylmercuric acetate activated recombinant human MMP-2 expressed in CHO cells pretreated for 4 hrs followed by Mca-Lys-Pro-Leu-Gly-Leu-Dap(Dnp)-Ala-Arg-NH2 fluorogenic substrate addition measured every 15 secs for 20 mins by fluorimetric assay. In kind it is cell-based.

Data set [4] addresses T1, Matrix metalloproteinase-9. The data set can be described thus: Inhibition of MMP-9 homodimerization in human T98G cells assessed as reduction in cell invasion at 5 to 25 nM measured after 24 hrs by p-formaldehyde/crystal violet staining based matrigel basement membrane transwell assay.
Data set [5] in a line: Antiproliferative activity against human T98G cells at 5 to 25 nM measured after 24 hrs by MTS assay. The following applies: 0.025 µM. In kind it is cell-based. A general note: Tetrazolium assays rely on reduction of a dye to a coloured formazan, in cell work by metabolically active cells.
Data set [6] can be described thus: Antiproliferative activity against human U343MG cells at 5 to 25 nM measured after 24 hrs by MTS assay. Format: cell-based. To be noted: 0.025 µM.
In data set [7] the target is T1, Matrix metalloproteinase-9. The experiment in a line: Inhibition of p-aminophenylmercuric acetate activated recombinant human MMP-9 expressed in CHO cells pretreated for 4 hrs followed by Mca-Lys-Pro-Leu-Gly-Leu-Dap(Dnp)-Ala-Arg-NH2 fluorogenic substrate addition measured every 15 secs for 20 mins by fluorimetric assay. In kind it is cell-based.
Data set [8] in a line: Antiproliferative activity against human U87MG cells at 5 to 25 nM measured after 24 hrs by MTS assay. Format: cell-based. The following applies: u-87mg atcc, 0.025 µM.
The species entered for a further data set is Homo sapiens. The data set can be described thus: Selectivity ratio of IC50 for p-aminophenylmercuric acetate activated human rheumatoid synovial fibroblast MMP-1 to IC50 for p-aminophenylmercuric acetate activated recombinant human MMP-9.
The target of the next data set is T2, Interstitial collagenase (Homo sapiens, UniProt P03956).
T2 sequence (P03956 whole entry): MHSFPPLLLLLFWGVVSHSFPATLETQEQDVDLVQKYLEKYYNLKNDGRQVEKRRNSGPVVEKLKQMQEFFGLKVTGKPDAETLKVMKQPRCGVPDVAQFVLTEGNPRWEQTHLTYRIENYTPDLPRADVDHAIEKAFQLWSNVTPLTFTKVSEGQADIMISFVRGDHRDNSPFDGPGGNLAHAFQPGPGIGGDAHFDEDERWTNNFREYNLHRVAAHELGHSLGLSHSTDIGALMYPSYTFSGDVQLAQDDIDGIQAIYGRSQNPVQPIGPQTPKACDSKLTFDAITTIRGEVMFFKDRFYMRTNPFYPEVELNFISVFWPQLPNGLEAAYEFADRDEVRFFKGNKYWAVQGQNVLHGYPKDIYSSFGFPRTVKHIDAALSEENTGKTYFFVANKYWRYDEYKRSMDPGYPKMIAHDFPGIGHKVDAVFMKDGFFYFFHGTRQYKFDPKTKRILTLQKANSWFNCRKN
The data set can be described thus: Inhibition of p-aminophenylmercuric acetate activated human rheumatoid synovial fibroblast MMP-1 pretreated for 4 hrs followed by Mca-Lys-Pro-Leu-Gly-Leu-Dap(Dnp)-Ala-Arg-NH2 fluorogenic substrate addition measured every 15 secs for 20 mins by fluorimetric assay.

Data set [9] has as its target T1, Matrix metalloproteinase-9. The data set can be described thus: Inhibition of MMP-9 homodimerization in human U87MG cells assessed as reduction in cell invasion at 5 to 25 nM measured after 24 hrs by p-formaldehyde/crystal violet staining based matrigel basement membrane transwell assay. The following applies: U-87MG ATCC.
For data set [10], the target named is T1, Matrix metalloproteinase-9. The following applies: T98G, 25 nM.
Description: Inhibition of MMP-9 homodimerization in human T98G cells assessed as reduction in cell invasion at 25 nM measured after 24 hrs by p-formaldehyde/crystal violet staining based matrigel basement membrane transwell assay
Data set [11] has as its target T1, Matrix metalloproteinase-9. The following applies: U-87MG ATCC, 25 nM.
Description: Inhibition of MMP-9 homodimerization in human U87MG cells assessed as reduction in cell invasion at 25 nM measured after 24 hrs by p-formaldehyde/crystal violet staining based matrigel basement membrane transwell assay

Active and inactive are the calls of the source. No cut-off for these calls is given here.

T1 sequence (P14780 whole entry): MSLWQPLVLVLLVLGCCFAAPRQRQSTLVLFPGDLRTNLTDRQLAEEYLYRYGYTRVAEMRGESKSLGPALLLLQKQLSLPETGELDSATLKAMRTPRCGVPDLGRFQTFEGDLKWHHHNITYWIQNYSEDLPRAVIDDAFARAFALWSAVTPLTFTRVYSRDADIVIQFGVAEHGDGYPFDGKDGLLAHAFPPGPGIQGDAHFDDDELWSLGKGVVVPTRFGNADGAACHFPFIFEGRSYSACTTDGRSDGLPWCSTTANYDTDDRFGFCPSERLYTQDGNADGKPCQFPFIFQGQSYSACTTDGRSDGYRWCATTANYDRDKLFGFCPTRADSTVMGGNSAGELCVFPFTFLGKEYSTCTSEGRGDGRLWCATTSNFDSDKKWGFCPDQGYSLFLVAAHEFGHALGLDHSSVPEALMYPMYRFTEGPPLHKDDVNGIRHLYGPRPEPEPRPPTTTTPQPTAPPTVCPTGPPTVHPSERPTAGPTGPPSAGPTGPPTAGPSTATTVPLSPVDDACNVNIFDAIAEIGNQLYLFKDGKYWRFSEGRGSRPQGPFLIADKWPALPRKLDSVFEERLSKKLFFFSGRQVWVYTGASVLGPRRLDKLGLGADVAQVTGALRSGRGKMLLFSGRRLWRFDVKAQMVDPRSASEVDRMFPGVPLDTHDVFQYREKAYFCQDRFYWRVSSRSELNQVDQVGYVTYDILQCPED
Sequence of 72 kDa type IV collagenase (P08253 whole entry): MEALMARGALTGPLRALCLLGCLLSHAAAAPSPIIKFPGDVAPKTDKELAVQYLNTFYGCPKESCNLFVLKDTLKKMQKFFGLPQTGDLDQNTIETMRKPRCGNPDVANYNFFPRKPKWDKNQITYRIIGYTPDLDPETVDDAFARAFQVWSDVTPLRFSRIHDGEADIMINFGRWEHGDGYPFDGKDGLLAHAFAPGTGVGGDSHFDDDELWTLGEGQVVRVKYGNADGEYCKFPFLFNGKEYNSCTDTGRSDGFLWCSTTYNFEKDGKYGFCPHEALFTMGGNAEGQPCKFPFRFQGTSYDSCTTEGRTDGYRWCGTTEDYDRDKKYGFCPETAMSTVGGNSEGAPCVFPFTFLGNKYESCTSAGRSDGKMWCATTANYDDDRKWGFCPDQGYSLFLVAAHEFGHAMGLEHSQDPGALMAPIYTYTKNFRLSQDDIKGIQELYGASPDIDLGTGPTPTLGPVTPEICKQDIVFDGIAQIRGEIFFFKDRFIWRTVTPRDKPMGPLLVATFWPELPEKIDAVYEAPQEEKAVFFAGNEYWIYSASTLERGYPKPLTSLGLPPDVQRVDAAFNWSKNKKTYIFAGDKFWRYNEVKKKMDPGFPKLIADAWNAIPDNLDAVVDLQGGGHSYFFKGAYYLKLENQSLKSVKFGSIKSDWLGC

For `CC(C)[C@H](C(=O)O)N(CCNC(=O)c1cccc(C(=O)NCCN([C@@H](C(=O)O)C(C)C)S(=O)(=O)c2ccc(-c3ccccc3)cc2)c1)S(=O)(=O)c1ccc(-c2ccccc2)cc1`, the IC50 came to 2200 nM in [1], 63 nM in data set [3], 26 nM in [7] and 11800 nM on Interstitial collagenase. In addition, the inhibition entry in data set [2], in data set [4] and in data set [9] was “Active” each time. Besides, the Activity result in data set [5], in data set [6] and in [8] was “Non-Toxic” throughout. Also, the Ratio IC50 in the data set filed under Homo sapiens worked out at 450.

For the compound `CC(C)[C@H](C(=O)O)N(CCNC(=O)c1ccccc1)S(=O)(=O)c1ccc(-c2ccccc2)cc1`, the IC50 is 1830 nM in [1], 170 nM in [3], 510 nM in data set [7] and 16000 nM at Interstitial collagenase. For the same compound, the inhibition entry in data set [4] and in [9] was “Active” each time. The Activity result in data set [5], in data set [6] and in data set [8] was “Non-Toxic” each time.

With `CC(C)[C@H](C(=O)O)N(CCNC(=O)c1cccc(C(=O)NCCN([C@@H](C(=O)N(C)C)C(C)C)S(=O)(=O)c2ccc(-c3ccccc3)cc2)c1)S(=O)(=O)c1ccc(-c2ccccc2)cc1`, the IC50 in data set [1] was determined as 850 nM; in [3], 110 nM; in data set [7], 34 nM; at Interstitial collagenase, 2050 nM.

With `CC(C)ON([C@H](CCNC(=O)CCCNC(=O)c1cccc(C(=O)NCCCC(=O)NCC[C@H](C(=O)NO)N(OC(C)C)S(=O)(=O)c2ccc(-c3ccccc3)cc2)c1)C(=O)NO)S(=O)(=O)c1ccc(-c2ccccc2)cc1`, the 50% inhibitory concentration (IC50) is 116 nM in [1], 20 nM in [3], 38 nM in data set [7] and 5200 nM at Interstitial collagenase.

Take `CC(C)[C@H](C(=O)NO)N(CCNC(=O)c1cccc(C(=O)NCCN([C@@H](C(=O)NO)C(C)C)S(=O)(=O)c2ccc(-c3ccccc3)cc2)c1)S(=O)(=O)c1ccc(-c2ccccc2)cc1`: the IC50 is 250 nM in data set [1], 10 nM in data set [3], 5.5 nM in [7] and 280 nM at Interstitial collagenase. The inhibition result in data set [2], in data set [4] and in [9] was “Active” throughout. Moreover, the Activity entry in data set [5], in data set [6] and in data set [8] was “Non-Toxic” each time.

`COc1ccc(S(=O)(=O)N(Cc2cccnc2)[C@@H](C(=O)NO)C(C)C)cc1`: the inhibition result in [2], in [10] and in [11] was “Active” throughout.

Turning to `CC(C)[C@H](C(=O)NO)N(CCNC(=O)c1ccccc1)S(=O)(=O)c1ccc(-c2ccccc2)cc1`, the IC50 in data set [1] is 23 nM; in [3], 0.16 nM; in data set [7] it was 2.5 nM; at Interstitial collagenase it was 13 nM. For the same compound, the inhibition result in data set [4] and in [9] was “Active” throughout. The Activity entry in data set [5], in data set [6] and in [8] was “Non-Toxic” in each case.

For `CC(C)[C@H](C(=O)NO)N(CCNC(=O)c1cccc(C(=O)NCCN([C@@H](C(=O)N(C)C)C(C)C)S(=O)(=O)c2ccc(-c3ccccc3)cc2)c1)S(=O)(=O)c1ccc(-c2ccccc2)cc1`, the IC50 in data set [1] amounted to 900 nM; in data set [3], 107 nM; in data set [7], 41 nM; at Interstitial collagenase it was 1600 nM.

In general, IC50 refers to the concentration needed to halve the response being measured.

Source of the values: ChEMBL document CHEMBL3877335, “Bifunctional Inhibitors as a New Tool To Reduce Cancer Cell Invasion by Impairing MMP-9 Homodimerization” (ACS Med Chem Lett, 2017).
